In the NIST ThermoML archive (doi:10.1016/j.tca.2008.09.006):
± gives the expanded uncertainty stated by the source.

Experiment: xn = mol fraction of the nth substance listed
Details: 303.15 K, 101 kPa, Liquid; for viscosity: Capillary tube (Ostwald / Ubbelohde) method; for mass density: Vibrating tube method

CCCCN(CCCC)CCCC [tributylamine] + CCCO
Details	mass density [kg/m3]	viscosity [mPa·s]
x1 = 0.0986	791.71 ± 0.14	1.695 ± 0.011
x1 = 0.1991	788.31 ± 0.15	1.66 ± 0.011
x1 = 0.2978	785.47 ± 0.15	1.619 ± 0.01
x1 = 0.4984	780.18 ± 0.15	1.514 ± 0.01
x1 = 0.5992	777.82 ± 0.15	1.449 ± 0.01
x1 = 0.6031	777.75 ± 0.15	1.445 ± 0.01
x1 = 0.6981	775.71 ± 0.15	1.378 ± 0.009
x1 = 0.7989	773.78 ± 0.15	1.302 ± 0.009
x1 = 0.8988	771.94 ± 0.15	1.233 ± 0.008
x1 = 1	770.39 ± 0.15	1.167 ± 0.008

CCCO [propan-1-ol] + CCCCN(CCCC)CCCC
x2 = 0
Details	mass density [kg/m3]	viscosity [mPa·s]
–	795.66 ± 0.14	1.727 ± 0.011

CCN(CC)CC [triethylamine] + CCCO
Details	mass density [kg/m3]	viscosity [mPa·s]
x1 = 0.2007	783.21 ± 0.15	1.189 ± 0.008
x1 = 0.295	775.99 ± 0.15	1.007 ± 0.007
x1 = 0.3226	773.73 ± 0.15	0.954 ± 0.007
x1 = 0.393	767.95 ± 0.15	0.845 ± 0.007
x1 = 0.4852	760.11 ± 0.16	0.719 ± 0.006
x1 = 0.6128	749.28 ± 0.16	0.574 ± 0.006
x1 = 0.7308	739.53 ± 0.16	0.47 ± 0.005
x1 = 0.7637	736.85 ± 0.16	0.444 ± 0.005
x1 = 0.8776	727.89 ± 0.17	0.375 ± 0.005
x1 = 1	718.45 ± 0.17	0.33 ± 0.005

CCCCN(CCCC)CCCC [tributylamine] + C1CCCCC1
Details	mass density [kg/m3]	viscosity [mPa·s]
x1 = 0.1023	768.32 ± 0.13	0.848 ± 0.006
x1 = 0.2014	768.09 ± 0.13	0.878 ± 0.007
x1 = 0.3008	768.17 ± 0.13	0.914 ± 0.007
x1 = 0.4016	768.42 ± 0.13	0.947 ± 0.007
x1 = 0.5002	768.78 ± 0.13	0.985 ± 0.007
x1 = 0.6018	769.15 ± 0.14	1.025 ± 0.007
x1 = 0.7021	769.57 ± 0.14	1.058 ± 0.007
x1 = 0.8012	769.85 ± 0.14	1.096 ± 0.008
x1 = 0.9024	770.12 ± 0.15	1.13 ± 0.008
x1 = 1	770.39 ± 0.15	1.167 ± 0.008

C1CCCCC1 [cyclohexane] + CCCO
Details	mass density [kg/m3]	viscosity [mPa·s]
x2 = 0	769.16 ± 0.12	0.819 ± 0.006
x2 = 0.1021	769.52 ± 0.12	0.832 ± 0.006
x2 = 0.2112	770.68 ± 0.13	0.872 ± 0.006
x2 = 0.3122	772.37 ± 0.13	0.922 ± 0.007
x2 = 0.4211	774.63 ± 0.13	0.986 ± 0.007
x2 = 0.5151	776.9 ± 0.13	1.053 ± 0.007
x2 = 0.6203	779.94 ± 0.13	1.148 ± 0.008
x2 = 0.7208	783.15 ± 0.14	1.264 ± 0.008
x2 = 0.8143	786.73 ± 0.14	1.398 ± 0.009
x2 = 0.9079	790.83 ± 0.14	1.555 ± 0.01

C1CCCCC1 [cyclohexane] + CCN(CC)CC
x2 = 0
Details	mass density [kg/m3]	viscosity [mPa·s]
–	769.16 ± 0.12	0.819 ± 0.006

CCCO [propan-1-ol] + C1CCCCC1
x1 = 1
Details	mass density [kg/m3]	viscosity [mPa·s]
–	795.66 ± 0.14	1.727 ± 0.011

CCN(CC)CC [triethylamine] + C1CCCCC1
Details	mass density [kg/m3]	viscosity [mPa·s]
x1 = 0.0995	761.78 ± 0.13	0.697 ± 0.006
x1 = 0.1947	755.57 ± 0.13	0.614 ± 0.006
x1 = 0.291	749.84 ± 0.14	0.548 ± 0.005
x1 = 0.3963	744.18 ± 0.14	0.495 ± 0.005
x1 = 0.4999	739.03 ± 0.14	0.453 ± 0.005
x1 = 0.5961	734.6 ± 0.15	0.42 ± 0.005
x1 = 0.6989	730.17 ± 0.15	0.392 ± 0.005
x1 = 0.7968	726.09 ± 0.16	0.374 ± 0.005
x1 = 0.8973	722.21 ± 0.16	0.348 ± 0.005
x1 = 1	718.45 ± 0.17	0.33 ± 0.005

CCCO [propan-1-ol] + CCN(CC)CC
x2 = 0
Details	mass density [kg/m3]	viscosity [mPa·s]
–	795.66 ± 0.14	1.727 ± 0.011

C1CCCCC1 [cyclohexane] + CCCCN(CCCC)CCCC
x2 = 0
Details	mass density [kg/m3]	viscosity [mPa·s]
–	769.16 ± 0.12	0.819 ± 0.006
